Target: T1, transketolase (TK) (Zea mays, UniProt Q7SIC9)
T1 sequence (Q7SIC9 1-675): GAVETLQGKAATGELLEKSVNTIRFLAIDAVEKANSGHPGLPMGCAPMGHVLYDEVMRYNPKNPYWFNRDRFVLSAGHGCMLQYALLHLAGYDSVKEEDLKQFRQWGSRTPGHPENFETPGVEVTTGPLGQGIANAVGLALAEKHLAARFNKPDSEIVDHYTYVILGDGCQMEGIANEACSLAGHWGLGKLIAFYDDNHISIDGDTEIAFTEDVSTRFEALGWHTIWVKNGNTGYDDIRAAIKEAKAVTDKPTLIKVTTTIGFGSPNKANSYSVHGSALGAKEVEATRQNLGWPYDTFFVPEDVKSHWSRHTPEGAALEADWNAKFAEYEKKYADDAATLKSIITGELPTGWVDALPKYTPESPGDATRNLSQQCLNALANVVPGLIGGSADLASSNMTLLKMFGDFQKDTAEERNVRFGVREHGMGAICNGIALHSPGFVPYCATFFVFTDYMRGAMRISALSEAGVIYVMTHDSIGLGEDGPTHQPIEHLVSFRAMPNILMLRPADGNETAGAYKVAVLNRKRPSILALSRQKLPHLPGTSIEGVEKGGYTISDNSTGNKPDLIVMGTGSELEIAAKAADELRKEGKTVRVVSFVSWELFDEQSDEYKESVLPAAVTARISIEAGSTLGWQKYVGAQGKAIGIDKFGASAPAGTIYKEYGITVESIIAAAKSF
Assay: in vitro dose-response enzymatic activity assay
Type: biochemical
Conditions: read-out: enzymatic assay / IC50

`C/C=C1/CC2=C(C(=O)OC2=O)[C@H](CCC)[C@H](O)C(=O)C[C@@H]1O` [compound 6, cornexistin] showed an IC50 of 50 ± 5 µM.

Reference: publication PMC7614749 (Chemistry (Weinheim an der Bergstrasse, Germany), 2023)
